In patent publication US20230210819A1, “USE OF BENZISOSELAZOLE DERIVATIVE FOR ANTI-CORONAVIRUS AND CONTROL OF INTERSTITIAL LUNG DISEASE (ILD) RELATED TO CORONAVIRUS” (SHANGHAI YUANXI MEDICINE CORP., priority 2020, published 2023):

Legend:
Assay type in all cases: in vivo, C57 mice
[1] = tested on: bleomycin-induced mouse lung disease model; assay: Assay of lung tissues for hydroxyproline content, 24-h modeling; conditions: day 35 of administration
Experimental: (§1) Animals of 24-h modeling were randomly divided into 5 groups according to the table below, 3 animals per control group and 5 animals per test group.
(§2) Drug administration began 24 h or 7 d after modeling. […] The day of the first administration was counted as D1, the next day as D2, and so forth. The normal groups and Model groups were given 200 µL of normal saline daily by gavage administration.
[…] 2 mL of pre-cooled normal saline was added. The tissues were cut into as many pieces as possible and centrifuged at 2000 rpm/min for 2 min, and the supernatant was discarded. • 2. To the precipitate was added 1 mL of RIPA lysis buffer (mixed protease inhibitor Cocktail was added in a ratio of 1:100 before use, and the resulting mixture was preserved on ice). […]
(II) Protein concentration assay by BCA • 1. […] A proper BCA working solution was freshly prepared according to the quantity of the standard substance and samples. […] The plate was incubated at 37° C. for 30 min, and the absorbance at 570 nm was measured on a microplate reader. The sample protein concentration was calculated from the standard curve.
(III) HYP level assay • 1. […] To each well was added 50 µL of terminating solution, and the absorbance was immediately measured at a wavelength of 450 nm. […]

[2] = tested on: bleomycin-induced mouse lung disease model; assay: Lung HE pathological analysis (Ashcroft score), 7-d modeling; conditions: for HE score (pulmonary fibrosis, Ashcroft): 18 fields of view
Experimental: Animals of 7-d modeling were randomly divided into 7 groups according to the table below, 6 animals per control group and 12 animals per test group.
as §2
1. […] Specifically, a mold was prepared first, and then the tissue was laid flat at the bottom of the mold; after the section face was arranged facedown, the embedding box cover was put on the mold; molten wax was poured into the mold until it overflowed the mold, and then the mold was gently lifted up and laid flat in a freezing platform; after being rapidly cooled and frozen for about 10 min, the mold was took out. • 6) Sectioning method
2. HE staining • 1) A flat section was selected for HE staining. • 2) The section was dewaxed in xylene I for 20 min. • 3) The section was dewaxed in xylene II for 20 min. • 4) The section was soaked in absolute ethanol for 10 min. • 5) Stepwise rehydrating, in absolute ethanol for 5 min, in 90% ethanol for 5 min, in 80% ethanol for 5 min, and in […] for 5 min; and a water wash. • 6) Staining with hematoxylin for 3-5 min. A water wash. • 7) Differentiating with 1% HCl-[…] for 5-10 s. A water wash, and bluing. • 8) Staining with eosin for 30-60 s. A water wash. • 9) Washing with 80% ethanol for 3-5 s, with 95% ethanol for 3-5 s, and with absolute ethanol for 3-5 s. • 10) Coverslipping with neutral resin, observing under a microscope, and photographing.
HE sectioning: 3 sections were consecutively made; flat sections of complete tissue were selected for HE staining; each of the sections was photographed in 3 randomly selected fields of view at 200x magnification. The obtained images were scored.
The general standard Ashcroft scoring method for pulmonary fibrosis tissues was adopted in HE scoring. The HE pathological analysis is an outcome evaluation for irreversible pulmonary fibrosis that develops in interstitial lung disease models.
For 6 animals from each of the 7-d modeling groups, a total of 18 HE fields of view were scored.

[3] = tested on: bleomycin-induced mouse lung disease model; assay: Blood gas analysis, 24-h modeling; conditions: for BEect / HCO3^- / PCO2: arterial blood after administration ended
Experimental: as §1, §2
1. After being anaesthetized, a mouse was fixed to a board in a supine position.
2. After the skin was disinfected with alcohol, a midline cut of about 1.5 cm was made downward in the skin of the neck. The connective tissue between the sternohyoid muscle and the stemothyroid muscle was separated along the anterior border of the sternomastoid muscle with a tissue forceps. The pulsating common carotid artery could be seen on the deep right side of the trachea. A common carotid artery of about 1.5 cm in length was separated. The distal end was ligated with silk thread, and the proximal end was clipped with an artery clip and threaded with a silk thread for later use. The mouse board was placed under a dissecting microscope, and a V-shaped centripetal incision was gently made in a site near the distal end of the artery with a microscopy scissor. A PE microcatheter was inserted into the artery and fixed by making a knot with silk thread. The artery clip was removed, and 0.1-0.2 mL of blood was collected with a 1 mL syringe. The proximal end was clipped with an artery clip, and the syringe was removed. The blood was immediately analyzed on an AbboTTi-STAT blood gas microanalyzer.
In a blood gas analysis, the H^+ concentration in the blood and gases (mainly CO2 and O2) dissolved in the blood can be determined to directly reflect the function of pulmonary ventilation and the acid-base balance state. They are used to determine in the organism whether the acid-base balance is upset, whether anoxia occurred, the level of anoxia, and so forth.

[4] = Dex 1-1.5 mg/kg i.p. every two days
[5] = 7-d modeling, Dex 1-1.5 mg/kg i.p. every two days
[6] = 7-d modeling, BSH: BS 180 mg/kg gavage daily
[7] = 7-d modeling, BSL: BS 36 mg/kg gavage daily
[8] = 7-d modeling, BSM: BS 90 mg/kg gavage daily

SMILES: C[C@@H]1C[C@H]2[C@@H]3CCC4=CC(=O)C=C[C@]4(C)[C@@]3(F)[C@@H](O)C[C@]2(C)[C@@]1(O)C(=O)CO [Dex, dexamethasone, reference compound]
- HY7P, hydroxyproline content in the lungs [1, 4]: 2.25 ± 0.31 µg/mL
- HE score and benefit rate, ≥4 points (fields/total); pathological tissue change [2, 5]: 7/18
- HE score and benefit rate, ≥4 points (percent of fields); probability of pathological tissue change [2, 5]: 38.9%
- HE score and benefit rate, ≥6 points (fields/total) [2, 5]: 0/18
- HE score and benefit rate, ≥6 points (percent of fields) [2, 5]: 0%
- HE score (pulmonary fibrosis, Ashcroft) [2, 5]: 3.28 ± 0.83
- BEect [3, 4]: -9.20 ± 1.30 mmol/L
- HCO3^- [3, 4]: 28.28 ± 1.56 mmol/L
- PCO2 [3, 4]: 32.52±2.73 mmHg

SMILES: O=c1c2ccccc2[se]n1CCCCn1[se]c2ccccc2c1=O [BS, 1,4-[bis(1,2-benzisoselenazol-3(2H)-one)]butane]
- HY7P, hydroxyproline content in the lungs ([1]; BS 90 mg/kg gavage daily): 2.17 ± 0.19 µg/mL
- Effect on lung tissue structure, HE (in words) ([2]; 7-d model, formation stage, BSL (36 mg/kg), BSM (90 mg/kg) and BSH (180 mg/kg)): significantly reduce structural changes in lung tissues
- Effect against ECM deposition (in words) ([2]; 7-d model, BSH, 180 mg/kg): significant synergetic effect against ECM deposition
- Clear lung tissue damage or pathological tissue change, in words ([2]; 7-d modeling, BSH: BS 180 mg/kg): did not show clear lung tissue damage or pathological tissue change
- HE score and benefit rate, ≥4 points (fields/total); pathological tissue change [2, 6]: 0/18
- HE score and benefit rate, ≥4 points (percent of fields); probability of pathological tissue change [2, 6]: 0%
- HE score and benefit rate, ≥5 points (fields/total); clear lung tissue damage [2, 6]: 0/18
- HE score and benefit rate, ≥5 points (percent of fields); probability of clear lung tissue damage [2, 6]: 0%
- HE score and benefit rate, ≥6 points (fields/total) [2, 6]: 0/18
- HE score and benefit rate, ≥6 points (percent of fields) [2, 6]: 0%
- Lung HE histology description [2, 6]: substantially complete lung tissue structures
- HE score (pulmonary fibrosis, Ashcroft) [2, 6]: 1.48 ± 0.78
- HE score and benefit rate, ≥4 points (fields/total); pathological tissue change [2, 7]: 15/18
- HE score and benefit rate, ≥4 points (percent of fields); probability of pathological tissue change [2, 7]: 83.3%
- HE score and benefit rate, ≥5 points (fields/total); clear lung tissue damage [2, 7]: 6/18
- HE score and benefit rate, ≥5 points (percent of fields); probability of clear lung tissue damage [2, 7]: 33.3%
- HE score and benefit rate, ≥6 points (fields/total) [2, 7]: 1/18
- HE score and benefit rate, ≥6 points (percent of fields) [2, 7]: 5.6%
- Lung HE histology description [2, 7]: relatively better lung structures than the Model group
- HE score (pulmonary fibrosis, Ashcroft) [2, 7]: 4.28 ± 0.83
- HE score and benefit rate, ≥4 points (fields/total); pathological tissue change [2, 8]: 5/18
- HE score and benefit rate, ≥4 points (percent of fields); probability of pathological tissue change [2, 8]: 27.8%
- HE score and benefit rate, ≥5 points (fields/total); clear lung tissue damage [2, 8]: 1/18
- HE score and benefit rate, ≥5 points (percent of fields); probability of clear lung tissue damage [2, 8]: 5.6%
- HE score and benefit rate, ≥6 points (fields/total) [2, 8]: 0/18
- HE score and benefit rate, ≥6 points (percent of fields) [2, 8]: 0%
- Lung HE histology description [2, 8]: much better lung structures than the Model group
- HE score (pulmonary fibrosis, Ashcroft) [2, 8]: 3.00 ± 0.84
- BEect ([3]; BS 90 mg/kg gavage daily): -9.40 ± 1.14 mmol/L
- HCO3^- ([3]; BS 90 mg/kg gavage daily): 30.00 ± 1.20 mmol/L
- PCO2 ([3]; BS 90 mg/kg gavage daily): 30.84±1.21 mmHg
- Effect on blood gas analysis (in words) ([3]; BS 90 mg/kg, better than Dex (1-1.5 mg/kg) in general): significant improvements to the function of pulmonary ventilation and the acid-base balance states
